This is an account of results in patent US20240150339A1, “Compounds and Their Use as PDE4 Activators” (Mironid Limited, priority 2021, published 2024).

One test has as its system m-IMCD3 cells. In words: Inhibition of PGE2-stimulated in vitro cyst formation in 3D culture of m-IMCD3 cells. It counts as cell-based, mouse. The note with it: Mus musculus, mIMCD3, 144 h; 10 μM test compound; mean cyst area (%) compared to 100% for (DMSO + PGE2) and 0% for DMSO control; 100 nM PGE2; 6 days; read-out: % Cyst area after incubation with 10 μM test compound. The gist of the method: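 Mouse m-IMCD3 cells grown in 3D collagen I/Matrigel gels. From 18-24 h after plating, compound (0.1% DMSO) plus 100 nM PGE2 were added and replenished at 2-3 days. After 6 days, imaging gave mean cyst area, scaled to 100% for DMSO+PGE2 and 0% for DMSO alone.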

The target of a further test is T1, PDE4D5 (Homo sapiens, UniProt Q08499).
T1 construct: Using Full-Length Human PDE4 Isoforms: Long Forms PDE4D5, PDE4C3, PDE4B1 and Short Form PDE4B2; made in house; cytosol fraction of the cell lysate, not purified
In words: PDE assay, activation of full-length human PDE4D5 long form ([3H]cAMP radio-assay). The note with it: for activation at 30 µM: 30 μM test compound, mean % increase in counts over basal activity. It counts as biochemical. The text has this:
(§1) Experiment 1: Measurement of Modulation of Enzyme Activity by PDE4 Long Form Activators of the Present Invention Using Full-Length Human PDE4 Isoforms: Long Forms PDE4D5, PDE4C3, PDE4B1 and Short Form PDE4B2
(§2) (Marchmont, R. J. and Houslay, M. D. Biochem. J. 187: 381-92, 1980)
For transient transfection of exogenous PDE4 long isoforms, HEK 293 cells were transfected with pcDNA3.1 or pDEST™ PDE4 expression vectors using Lipofectamine LTX/Plus reagent (Invitrogen) as outlined by the manufacturer.
Where stable cell lines were generated the clonal isolates were expanded to obtain cell lines that stably expressed the full-length human PDE4 long isoforms and the full length human PDE4B2 short isoform. These were called the HEK-PDE4D5, HEK-PDE4B1 and HEK-PDE4B2 cell lines, respectively.
(§3) HEK-PDE4D5 cells were seeded out in 100 mm plates and incubated at 37° C. in an atmosphere of 5% CO2, 95% air. Cell lysates were prepared using KHEM buffer [50 mM KCl, 10 mM EGTA, 50 mM HEPES (pH 7.2), 1.92 mM MgCl2].
(§4) To prepare the cell lysates, the 100 mm plates containing the cells were placed on ice and washed with ice-cold PBS (phosphate buffered saline, pH 7.4). KHEM buffer (500 μl) was added to the cells. Cells were then scraped off the plate and triturated using a needle (BD Microlance™ 0.8, 40 mm). The lysed cells were then centrifuged at 2000 rpm for 10 minutes to remove cell debris and the supernatant (cell lysate containing recombinant PDE4D5) was transferred to a fresh tube and kept on ice.
(§5) The cell lysate containing recombinant PDE4D5 was transferred into a centrifuge tube and placed into an ultracentrifuge (BECKMAN COULTER) and spun at high speed (100,000 g) for 30 minutes at 4° C. The cytosol fraction was then collected and its protein amount determined using a BCA protein assay.
(§6) PDE assays were performed in thin walled V-bottomed 96-well plates. The assays were performed at a final concentration of 10 mM Tris/5 mM MgCl2 μlus PDE4D5 cell lysate cytosol fraction, containing over-expressed PDE4D5, with and without test compound. The lysate/compound mix were incubated together for 15 min at room temperature on an orbital shaker prior to addition of [^3H] cAMP (final concentration 1 μM [^3H] cAMP; Perkin Elmer) to a final volume of 50 μl per reaction. The reactions were then incubated for 10 minutes at 30° C., terminated by heating for 2 min at 95° C. and allowed to cool. Snake venom (12.5 μl of 1 mg/ml; Crotalus atrox, Sigma) was then added and the plates were agitated and incubated for a further 15 minutes at 30° C. Dowex ion exchange resin (Sigma, chloride form, 200-400 mesh; 200 μl; prepared as a 1:1 Dowex: water stock, thoroughly re-suspended and diluted 2:1 with ethanol) was then added to each well and the plates incubated for 15 min at room temperature on an orbital shaker ensuring sufficient agitation for resin suspension (550 RPM). The reaction mixture was then transferred to a 96 well filter plate (Millipore; […] pore size) and filtered into a receiving 96-well plate to remove the dowex suspension. 30 μL of the filtered solution was then transferred to the wells of an Opti-plate (Perkin Elmer) 96 well assay plate and 120 μl of Microscint 40 scintillation fluid was added. The plate was then placed on an orbital shaker for 10 min at high speed (900 RPM) to mix the sample with scintillation fluid prior to quantitation using a plate based scintillation counter (Top-Count).
(§7) The % increase in counts in the presence of test compound at a particular concentration indicates the % increase in enzyme activity at that concentration.

The next test has as its target T2, PDE4C3 (Homo sapiens, UniProt Q08493).
T2 construct: Using Full-Length Human PDE4 Isoforms: Long Forms PDE4D5, PDE4C3, PDE4B1 and Short Form PDE4B2; made in house; host or cells: HEK 293 transfected with pcDNA3.1 or pDEST PDE4 expression vector; cytosol fraction of the lysate by analogy to PDE4D5
In words: PDE assay, activation of full-length human PDE4C3 long form ([3H]cAMP radio-assay). It counts as biochemical. The note with it: 30 μM test compound; mean % increase in counts over basal activity.
Text: as §1, §2
For transient transfection of exogenous PDE4 long isoforms, HEK 293 cells were transfected with pcDNA3.1 or pDEST™ PDE4 expression vectors using Lipofectamine LTX/Plus reagent (Invitrogen) as outlined by the manufacturer. […]
as §3, §4, §5, §6, §7

T1 sequence (Q08499 1-745 isoform Q08499-6): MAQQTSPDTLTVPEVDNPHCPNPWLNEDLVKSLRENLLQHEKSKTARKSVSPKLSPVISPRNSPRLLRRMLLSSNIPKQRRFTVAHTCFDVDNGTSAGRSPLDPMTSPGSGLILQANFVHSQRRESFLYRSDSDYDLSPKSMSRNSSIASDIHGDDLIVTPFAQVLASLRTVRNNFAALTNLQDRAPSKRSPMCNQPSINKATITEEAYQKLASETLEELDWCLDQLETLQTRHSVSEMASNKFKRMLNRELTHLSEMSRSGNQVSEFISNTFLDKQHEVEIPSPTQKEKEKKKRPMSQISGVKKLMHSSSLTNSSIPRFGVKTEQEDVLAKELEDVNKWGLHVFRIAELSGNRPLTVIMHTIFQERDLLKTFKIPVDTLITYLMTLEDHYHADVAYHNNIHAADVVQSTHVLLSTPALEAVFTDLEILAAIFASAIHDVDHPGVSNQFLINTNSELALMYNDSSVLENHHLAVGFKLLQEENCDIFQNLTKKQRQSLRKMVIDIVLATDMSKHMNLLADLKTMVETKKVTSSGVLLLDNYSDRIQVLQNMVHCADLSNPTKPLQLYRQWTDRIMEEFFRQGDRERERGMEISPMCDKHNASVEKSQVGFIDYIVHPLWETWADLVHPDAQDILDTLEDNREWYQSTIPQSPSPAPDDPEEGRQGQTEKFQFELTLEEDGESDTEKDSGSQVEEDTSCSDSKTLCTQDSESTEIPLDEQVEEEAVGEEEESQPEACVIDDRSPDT
T2 sequence (Q08493 1-680 isoform Q08493-3): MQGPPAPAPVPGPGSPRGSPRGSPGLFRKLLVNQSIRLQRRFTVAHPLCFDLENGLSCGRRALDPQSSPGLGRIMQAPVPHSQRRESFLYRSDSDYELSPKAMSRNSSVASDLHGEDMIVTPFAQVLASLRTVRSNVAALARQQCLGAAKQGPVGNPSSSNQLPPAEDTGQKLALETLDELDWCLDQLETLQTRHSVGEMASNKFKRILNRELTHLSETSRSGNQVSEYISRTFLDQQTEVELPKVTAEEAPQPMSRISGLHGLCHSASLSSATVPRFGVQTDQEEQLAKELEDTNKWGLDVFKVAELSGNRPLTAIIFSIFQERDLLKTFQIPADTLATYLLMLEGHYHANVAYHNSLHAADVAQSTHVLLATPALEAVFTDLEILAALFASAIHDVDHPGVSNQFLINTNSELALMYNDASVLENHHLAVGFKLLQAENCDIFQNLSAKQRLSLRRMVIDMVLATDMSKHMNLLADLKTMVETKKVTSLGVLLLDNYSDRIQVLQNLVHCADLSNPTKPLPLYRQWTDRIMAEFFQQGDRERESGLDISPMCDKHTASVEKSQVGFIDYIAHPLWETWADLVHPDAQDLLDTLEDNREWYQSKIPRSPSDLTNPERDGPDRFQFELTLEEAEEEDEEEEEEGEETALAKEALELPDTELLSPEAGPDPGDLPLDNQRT

As for `Cc1ncccc1-c1nc2ccc(C(=O)NCc3ccc(Cl)cc3)cc2s1` [Example 1, N-(4-chlorobenzyl)-2-(2-methylpyridin-3-yl)benzo[d]thiazole-6-carboxamide], the activity at 10 µM with m-IMCD3 cells was -7%. On PDE4D5, this molecule returned an activation at 30 µM of 48%. For `O=C(N[C@H]1CCOc2ccccc21)c1ccc2nc(-c3ccc(C(F)(F)F)nc3)sc2c1` [Example 25, (S)-N-(chroman-4-yl)-2-(6-(trifluoromethyl)pyridin-3-yl)benzo[d]thiazole-6-carboxamide], the activity at 10 µM in the test on m-IMCD3 cells worked out at 23%. Also, the activation at 30 µM on PDE4D5 turned out to be 37%. `Cc1cncc(-c2nc3ccc(C(=O)NCc4ccc(Cl)cc4)cc3s2)c1` [Example 31, N-(4-chlorobenzyl)-2-(5-methylpyridin-3-yl)benzo[d]thiazole-6-carboxamide]: on PDE4C3, the activation at 30 µM amounted to 76%. The same measure, in the same setting: as for `COc1ccc(CNC(=O)c2ccc3nc(-c4cncc(C)c4)sc3c2)cc1` [Example 33, N-(4-methoxybenzyl)-2-(5-methylpyridin-3-yl)benzo[d]thiazole-6-carboxamide], the figure is 82%.

Molecule `Cc1cncc(-c2nc3ccc(C(=O)NCc4cccc(F)c4)cc3s2)c1` [Example 35, N-(3-fluorobenzyl)-2-(5-methylpyridin-3-yl)benzo[d]thiazole-6-carboxamide] registered an activation at 30 µM on PDE4C3 of 36%. In turn, `Cc1cncc(-c2nc3ccc(C(=O)N[C@H]4CCc5ccccc54)cc3s2)c1` [Example 37, (S)-N-(2,3-dihydro-1H-inden-1-yl)-2-(5-methylpyridin-3-yl)benzo[d]thiazole-6-carboxamide] had an activation at 30 µM on PDE4C3 of 57%. Same read-out and setting: to `Cc1cncc(-c2nc3ccc(C(=O)N[C@@H]4CCc5ccccc54)cc3s2)c1` [Example 38, (R)-N-(2,3-dihydro-1H-inden-1-yl)-2-(5-methylpyridin-3-yl)benzo[d]thiazole-6-carboxamide] belongs 32%; to `Cc1cncc(-c2nc3ccc(C(=O)N[C@@H]4c5ccccc5C[C@@H]4O)cc3s2)c1` [Example 39, N-((1R,2S)-2-hydroxy-2,3-dihydro-1H-inden-1-yl)-2-(5-methylpyridin-3-yl)benzo[d]thiazole-6-carboxamide], 35%; to `Cc1cncc(-c2nc3ccc(C(=O)NC4CCCC4)cc3s2)c1` [Example 43, N-cyclopentyl-2-(5-methylpyridin-3-yl)benzo[d]thiazole-6-carboxamide], 68%.

Regarding `Cc1cncc(-c2nc3ccc(C(=O)NC4CCOCC4)cc3s2)c1` [Example 46, 2-(5-methylpyridin-3-yl)-N-(tetrahydro-2H-pyran-4-yl)benzo[d]thiazole-6-carboxamide], the activation at 30 µM on PDE4C3 stood at 71%.

Take `O=C(N[C@H]1CCOc2ccccc21)c1ccc2nc(-c3cncc(C(F)(F)F)c3)sc2c1` [Example 47, (S)-N-(chroman-4-yl)-2-(5-(trifluoromethyl)pyridin-3-yl)benzo[d]thiazole-6-carboxamide]: the activity at 10 µM with m-IMCD3 cells worked out at 12%. Moreover, the activation at 30 µM at PDE4D5 is 102%.

Turning to `O=C(N[C@H]1CCOc2ccccc21)c1ccc2nc(-c3cncc(C4CC4)c3)sc2c1` [Example 48, (S)-N-(chroman-4-yl)-2-(5-cyclopropylpyridin-3-yl)benzo[d]thiazole-6-carboxamide], the activity at 10 µM in the test with m-IMCD3 cells was determined as 14%. In addition, the activation at 30 µM on PDE4D5 amounted to 135%. `CC(C)c1cncc(-c2nc3ccc(C(=O)N[C@H]4CCOc5ccccc54)cc3s2)c1` [Example 49, (S)-N-(chroman-4-yl)-2-(5-isopropylpyridin-3-yl)benzo[d]thiazole-6-carboxamide]: the activity at 10 µM in the test with m-IMCD3 cells was found to be 9%. The molecule also came in with an activation at 30 µM on PDE4D5 of 131%. `O=C(N[C@H]1CCOc2ccccc21)c1ccc2nc(-c3cncc(Cl)c3)sc2c1` [Example 53, (S)-2-(5-chloropyridin-3-yl)-N-(chroman-4-yl)benzo[d]thiazole-6-carboxamide] returned an activation at 30 µM at PDE4C3 of 46%. `Cc1cnccc1-c1nc2ccc(C(=O)N[C@H]3CCOc4ccccc43)cc2s1` [Example 55, (S)-N-(chroman-4-yl)-2-(3-methylpyridin-4-yl)benzo[d]thiazole-6-carboxamide]: the activity at 10 µM in the test on m-IMCD3 cells was 18%. Besides, the activation at 30 µM at PDE4D5 came to 49%.

As to `Cc1cc(-c2nc3ccc(C(=O)N[C@H]4CCOc5ccccc54)cc3s2)ccn1` [Example 56, (S)-N-(chroman-4-yl)-2-(2-methylpyridin-4-yl)benzo[d]thiazole-6-carboxamide], in the test on m-IMCD3 cells, the activity at 10 µM is 10%. Also, the activation at 30 µM on PDE4D5 was found to be 107%. The like results for `Cc1nn(C)c(C)c1-c1nc2ccc(C(=O)N[C@H]3CCOc4ccccc43)cc2s1` [Example 59, (S)-N-(chroman-4-yl)-2-(1,3,5-trimethyl-1H-pyrazol-4-yl)benzo[d]thiazoIe-6-carboxamide] were, in that order, 20% and 77%. Turning to `Cc1nn(C)cc1-c1nc2ccc(C(=O)N[C@H]3CCOc4ccccc43)cc2s1` [Example 61, (S)-N-(chroman-4-yl)-2-(1,3-dimethyl-1H-pyrazol-4-yl)benzo[d]thiazole-6-carboxamide], the activity at 10 µM in the test with m-IMCD3 cells came to 8%. On PDE4D5, this molecule had an activation at 30 µM of 124%. Taken in the same sequence, the figures for `O=C(N[C@H]1CCOc2ccccc21)c1ccc2nc(-c3cncc(C(F)F)c3)sc2c1` [Example 63, (S)-N-(chroman-4-yl)-2-(5-(difluoromethyl)pyridin-3-yl)benzo[d]thiazole-6-carboxamide] were 16% and 110%.

`Cc1ccncc1-c1nc2cc(C(=O)N[C@H]3CCOc4ccccc43)ccc2s1` [Example 66, (S)-N-(chroman-4-yl)-2-(4-methylpyridin-3-yl)benzo[d]thiazole-5-carboxamide]: the activation at 30 µM on PDE4D5 turned out to be 78%. Moreover, on PDE4D5 (concentration response, result in words), the “Activation of PDE4D5 (FIG. 1)” value is reported as “concentration-dependent activation”. Turning to `O=C(N[C@H]1CCOc2ccccc21)c1ccc2sc(-c3cccnc3)nc2c1` [Example 67, (S)-N-(chroman-4-yl)-2-(pyridin-3-yl)benzo[d]thiazole-5-carboxamide], the activation at 30 µM at PDE4D5 stood at 89%.

`CCN1CCN(c2nc3ccc(C(=O)N[C@H]4CCOc5ccccc54)cc3s2)CC1` [Example 72, (S)-N-(chroman-4-yl)-2-(4-ethylpiperazin-1-yl)benzo[d]thiazole-6-carboxamide] gave an activation at 30 µM on PDE4D5 of 32%. Same read-out and setting: as for `O=C(N[C@H]1CCOc2ccccc21)c1ccc2nc(N3CCCCC3)sc2c1` [Example 76, (S)-N-(chroman-4-yl)-2-(piperidin-1-yl)benzo[d]thiazole-6-carboxamide], the figure is 57%.
